Data: patent US20140121178A1, “METHOD AND IMPROVED PHARMACEUTICAL COMPOSITION FOR IMPROVING THE ABSORPTION OF AN ESTER PRODRUG” (ACENDA PHARMA INC., priority 2011, published 2014)
Structures can show the parent of a compound that is named as a salt. Values belong to the molecule of their own block, whether it stands above or below them.

Experiments:
[1] = Rat oral pharmacokinetics of clopidogrel bisulfate (3 mg/kg) with or without triethyl citrate/triacetin; type: in vivo, rats; settings: Sprague-Dawley, plasma
Experimental: Serial plasma samples were obtained from each rat and concentrations of clopidogrel and clopidogrel acid in the plasma samples were determined by LC-MS/MS.

in vivo = settings: male, Sprague-Dawley, rat, po, 30 mg/kg
Experimental: Male rats (Sprague-Dawley, 300-400 g) were surgically implanted with jugular-vein cannulas one day prior to dosing and fasted overnight (about 18-20 hours) prior to dosing. Water was available ad libitum throughout the experiment. Dosing solutions of olmesartan medoxomil (5 mg/ml) were prepared in a vehicle of DMSO/PEG400 (10/90, v/v) or DMSO/PEG400/triacetin (10/80/10, v/v). Single oral doses of the olmesartan medoxomil and olmesartan medoxomil/triacetin were each administered separately to a group of 3 male rats by gavage. Each rat received olmesartan medoxomil (5 mg/kg) in DMSO/PEG400 (10/90, v/v) or olmesartan medoxomil (5 mg/kg) in DMSO/PEG400/triacetin (10/80/10, v/v).
Blood samples (0.15 ml/rat) were collected from each rat via the jugular-vein cannula at 0, 0.25, 0.5, 1, 2, 4, 6, 8, and 24 hours after dosing. Plasma was separated from blood cells by centrifugation and frozen at −20° C. until analysis. […] A plasma concentration-time curve was plotted based on the obtained data.

CE from porcine liver [2] = assay: In vitro CE-mediated hydrolysis of clopidogrel in the presence of triacetin, triethyl citrate or both; type: in vitro ADME; settings: Table 2
CE from porcine liver [3] = assay: In vitro CE-mediated hydrolysis of olmesartan medoxomil in the presence of ester excipients; type: in vitro ADME; settings: for effect on CE-mediated hydrolysis of olmesartan medoxomil (in words): compared with lecithin, Table 1; for preliminary screen of ester excipients for impeding hydrolysis of olmesartan medoxomil by CE in vitro: preliminary results
Experimental: Various known pharmaceutical ester excipients including triacetin, glyceryl tristearate, triethyl citrate, lecithin, tri-n-butyl citrate, acetyl triethyl citrate, and acetyl tri-n-butyl citrate were respectively tested to determine whether any of them impedes hydrolysis of olmesartan medoxomil by CE in vitro.
Test solutions (a) to (f) were prepared respectively as follows: (a) 10 μM of olmesartan medoxomil dissolved in 10% DMSO (dimethyl sulfoxide)/90% PEG400 (w/w, stability control); (b) 10 μM of olmesartan medoxomil dissolved in 10% DMSO/90% PEG400 (w/w, blank control) (c) 10 μM of olmesartan medoxomil dissolved in 10% DMSO/12% triacetin/78% PEG400 (w/w/w); (d) 10 μM of olmesartan medoxomil dissolved in 10% DMSO/12% triethyl citrate/78% PEG400 (w/w/w); (e) 10 μM of olmesartan medoxomil dissolved in 10% DMSO/12% lecithin/78% PEG400 (w/w/w); and (f) 10 μM of olmesartan medoxomil dissolved in 10% DMSO/6% triacetin/6% triethyl citrate/78% PEG400 (w/w/w/w).
CE from porcine liver (17 units/mg, available from Sigma-Aldrich) was dissolved in simulated intestinal fluid (SIF, pH=6.8) to yield a CE solution (17 units/ml). SIF was prepared by dissolving 0.6805 g of KH2PO4 and 0.0896 g of NaOH in 100 ml of de-ionized water.
Each 70 μl of olmesartan medoxomil solution (i.e., solutions (a)-(f)) was mixed with 70 μl of SIF and thereby forming mixtures (a) to (f). Each of the mixtures (a) to (f) was transferred to one well of a 96-well plate, and 60 μl each of the CE solution was added to respective wells containing mixtures (b) to (f) to initiate the reaction. In addition, sixty (60) μl of SIF without CE was added to mixture (a). This incubation mixture without CE was used as a stability control to determine the chemical stability of olmesartan medoxomil in the incubation mixture. The mixtures were incubated for 20 minutes under the air at 37° C. with constant shaking on a temperature-controlled heating block.
At the end of the 20-minute incubation, 100 μl of ice-cold acetonitrile was added to each well to terminate the reaction. Each mixture was vortexed and centrifuged at 15,000×g for 20 min at room temperature. The supernatants were tested in HPLC/UV analysis, in which the concentration of olmesartan medoxomil in each mixture was measured. Percentages (%) of olmesartan medoxomil remaining in the mixtures were calculated based on the obtained data.

[4] = Rat oral pharmacokinetics of olmesartan medoxomil with or without triacetin; type: in vivo, rats (Sprague-Dawley); settings: rats, oral administration, plasma LC-MS/MS
Experimental: Water was available ad libitum throughout the experiment. Dosing solutions of olmesartan medoxomil (5 mg/ml) were prepared in a vehicle of DMSO/PEG400 (10/90, v/v) or DMSO/PEG400/triacetin (10/80/10, v/v). […] Each rat received olmesartan medoxomil (5 mg/kg) in DMSO/PEG400 (10/90, v/v) or olmesartan medoxomil (5 mg/kg) in DMSO/PEG400/triacetin (10/80/10, v/v).

[5] = Rat oral pharmacokinetics of capecitabine with or without triethyl citrate/triacetin; type: in vivo, rats; settings: capecitabine in rat plasma, capecitabine 5 mg/kg, triethyl citrate 22.5 mg/kg + triacetin 22.5 mg/kg where given
Experimental: In a rat study similar to the study described above, each rat received capecitabine (5 mg/kg) in DMSO or capecitabine (5 mg/kg) in DMSO/triethyl citrate (22.5 mg/kg)/triacetin (22.5 mg/kg).

[6] = Rat oral pharmacokinetics of capecitabine with or without triethyl citrate; type: in vivo, rats; settings: capecitabine in rat plasma, capecitabine 5 mg/kg, triethyl citrate 45 mg/kg where given
Experimental: Capecitabine is an ester prodrug, which is hydrolyzed mainly by CE2 in the GI track and CE1 in the liver and then converted by two enzymes to its active drug (5-fluorouracil) in the tumor after oral administration of capecitabine to cancer patients. […] Each rat received capecitabine (5 mg/kg) in DMSO or capecitabine (5 mg/kg) in DMSO/triethyl citrate (45 mg/kg).

[7] = mean n=3, read-out: AUC0-24 hr of capecitabine

- Cmax [1]: 0.8 ng/mL
- Tmax [1]: 2.9 h
- AUC(0-t) ([1]; read-out: AUC0-24 hr of clopidogrel): 2 ng·h/mL
- AUC(0-t) (in vivo): 28 ng·h/mL
- Cmax (in vivo): 7.3 ng/mL
- Tmax (in vivo): 4.1 h
Compound: COC(=O)[C@H](c1ccccc1Cl)N1CCc2sccc2C1 [Clopidogrel Bisulfate, clopidogrel bisulfate]

Compound: CC(=O)OCC(COC(C)=O)OC(C)=O [triacetin]
- effect on CE-mediated hydrolysis of clopidogrel (in words) (CE from porcine liver [2]): retard CE-mediated hydrolysis of clopidogrel
- effect on CE-mediated hydrolysis of olmesartan medoxomil (in words) (CE from porcine liver [3]): retards CE-mediated hydrolysis of olmesartan medoxomil
- preliminary screen of ester excipients for impeding hydrolysis of olmesartan medoxomil by CE in vitro (CE from porcine liver [3]): promising candidates

Compound: CCOC(=O)CC(O)(CC(=O)OCC)C(=O)OCC [triethyl citrate]
- effect on CE-mediated hydrolysis of clopidogrel (in words) (CE from porcine liver [2]): retard CE-mediated hydrolysis of clopidogrel
- effectiveness in impeding CE-mediated hydrolysis of clopidogrel compared with triacetin and lecithin (in words) (CE from porcine liver [2]): more effective in impeding CE-mediated hydrolysis of clopidogrel than triacetin and lecithin
- effect on CE-mediated hydrolysis of olmesartan medoxomil (in words) (CE from porcine liver [3]): retards CE-mediated hydrolysis of olmesartan medoxomil
- preliminary screen of ester excipients for impeding hydrolysis of olmesartan medoxomil by CE in vitro (CE from porcine liver [3]): promising candidates

- hydrolysis of olmesartan medoxomil to olmesartan after absorption [4]: completely hydrolyzed to olmesartan
Compound: CCCc1nc(C(C)(C)O)c(C(=O)OCc2oc(=O)oc2C)n1Cc1ccc(-c2ccccc2-c2nnn[nH]2)cc1 [Olmesartan Medoxomil, olmesartan medoxomil]

- Cmax ([5]; mean n=3): 8.9 ng/mL
- Tmax ([5]; mean n=3): 0.4 h
- AUC(0-t) [5, 7]: 15 ng·h/mL
- Cmax ([6]; mean n=3): 11.8 ng/mL
- Tmax ([6]; mean n=3): 0.8 h
- AUC(0-t) [6, 7]: 34 ng·h/mL
Compound: CCCCCOC(=O)Nc1nc(=O)n([C@@H]2O[C@H](C)[C@@H](O)[C@H]2O)cc1F [Capecitabine, capecitabine]
